Measured values from paper PMC11277489, “Novel Piperazine Derivatives of Vindoline as Anticancer Agents” (International Journal of Molecular Sciences, 2024).
Like-named read-outs stand apart in the source and are kept apart here.

Columns and labels:
U251 [1] = experiment: NCI60 five-dose screen, CNS Cancer; assay type: cell-based; conditions: Homo sapiens, U-251; U251, CNS Cancer; five-dose screen; read-out: GI50
OVCAR-3 = experiment: NCI60 five-dose screen, Ovarian Cancer; assay type: cell-based; conditions: Homo sapiens; OVCAR-3, Ovarian Cancer; five-dose screen; read-out: GI50
T-47D = experiment: NCI60 one-dose screen (10 μM), Breast Cancer; assay type: cell-based; conditions: Homo sapiens, T47D; 10 μM; T-47D, Breast Cancer; read-out: Growth percent rate
SN12C = experiment: NCI60 five-dose screen, Renal Cancer; assay type: cell-based; conditions: Homo sapiens, Renal Cancer, five-dose screen, read-out: GI50
COLO 205 = experiment: NCI60 five-dose screen, Colon Cancer; assay type: cell-based; conditions: Homo sapiens; COLO 205, Colon Cancer; five-dose screen; read-out: GI50
MCF7 = experiment: NCI60 five-dose screen, Breast Cancer; assay type: cell-based; conditions: Homo sapiens; MCF7, Breast Cancer; five-dose screen; read-out: GI50
NCI-H322M = experiment: NCI60 five-dose screen, Non-small Cell Lung Cancer; assay type: cell-based; conditions: Homo sapiens, Non-small Cell Lung Cancer, five-dose screen, read-out: GI50
HCT-15 = experiment: NCI60 five-dose screen, Colon Cancer; assay type: cell-based; conditions: Homo sapiens; HCT-15, Colon Cancer; five-dose screen; read-out: GI50
LOX IMVI = experiment: NCI60 five-dose screen, Melanoma; assay type: cell-based; conditions: Homo sapiens, Melanoma, five-dose screen, read-out: GI50
NCI/ADR-RES = experiment: NCI60 one-dose screen (10 μM), Ovarian Cancer; assay type: cell-based; conditions: Homo sapiens, 10 μM, Ovarian Cancer, read-out: Growth percent rate
MDA-MB-231/ATCC = experiment: NCI60 one-dose screen (10 μM), Breast Cancer; assay type: cell-based, human; conditions: Homo sapiens; 10 μM; MDA-MB-231/ATCC, Breast Cancer; read-out: Growth percent rate
HS 578T = experiment: NCI60 one-dose screen (10 μM), Breast Cancer; assay type: cell-based; conditions: Homo sapiens; 10 μM; HS 578T, Breast Cancer; read-out: Growth percent rate
UACC-257 = experiment: NCI60 five-dose screen, Melanoma; assay type: cell-based; conditions: Homo sapiens; UACC-257, Melanoma; five-dose screen; read-out: GI50
TK-10 = experiment: NCI60 one-dose screen (10 μM), Renal Cancer; assay type: cell-based; conditions: Homo sapiens; 10 μM; TK-10, Renal Cancer; read-out: Growth percent rate
UACC-62 [2] = experiment: NCI60 five-dose screen, Melanoma; assay type: cell-based; conditions: Homo sapiens; UACC-62, Melanoma; five-dose screen; read-out: GI50
HOP-62 = experiment: NCI60 one-dose screen (10 μM), Non-small Cell Lung Cancer; assay type: cell-based; conditions: Homo sapiens; 10 μM; HOP-62, Non-small Cell Lung Cancer; read-out: Growth percent rate
SK-OV-3 [3] = experiment: NCI60 one-dose screen (10 μM), Ovarian Cancer; assay type: cell-based; conditions: Homo sapiens; 10 μM; SK-OV-3, Ovarian Cancer; read-out: Growth percent rate
OVCAR-8 = experiment: NCI60 five-dose screen, Ovarian Cancer; assay type: cell-based; conditions: Homo sapiens; OVCAR-8, Ovarian Cancer; five-dose screen; read-out: GI50
UACC-62 [4] = experiment: NCI60 one-dose screen (10 μM), Melanoma; assay type: cell-based; conditions: Homo sapiens; 10 μM; UACC-62, Melanoma; read-out: Growth percent rate
SK-OV-3 [5] = experiment: NCI60 five-dose screen, Ovarian Cancer; assay type: cell-based; conditions: Homo sapiens; SK-OV-3, Ovarian Cancer; five-dose screen; read-out: GI50
KM12 = experiment: NCI60 five-dose screen, Colon Cancer; assay type: cell-based; conditions: Homo sapiens; KM12, Colon Cancer; five-dose screen; read-out: GI50
U251 [6] = experiment: NCI60 one-dose screen (10 μM), CNS Cancer; assay type: cell-based; conditions: Homo sapiens, U-251; 10 μM; U251, CNS Cancer; read-out: Growth percent rate
SR = experiment: NCI60 one-dose screen (10 μM), Leukemia; assay type: cell-based; conditions: Homo sapiens, 10 μM, Leukemia, read-out: Growth percent rate
MDA-MB231ATCC = experiment: NCI60 five-dose screen, Breast Cancer; assay type: cell-based; conditions: Homo sapiens, MDA-MB-231; MDA-MB231ATCC, Breast Cancer; five-dose screen; read-out: GI50
RPMI-8226 [7] = experiment: NCI60 five-dose screen, Leukemia; assay type: cell-based; conditions: Homo sapiens; RPMI-8226, Leukemia; five-dose screen; read-out: GI50
NCI-H226 = experiment: NCI60 one-dose screen (10 μM), Non-small Cell Lung Cancer; assay type: cell-based; conditions: Homo sapiens; 10 μM; NCI-H226, Non-small Cell Lung Cancer; read-out: Growth percent rate
MDA-MB-468 [8] = experiment: NCI60 five-dose screen, Breast Cancer; assay type: cell-based; conditions: Homo sapiens; MDA-MB-468, Breast Cancer; five-dose screen; read-out: GI50
ACHN = experiment: NCI60 five-dose screen, Renal Cancer; assay type: cell-based; conditions: Homo sapiens, Renal Cancer, five-dose screen, read-out: GI50
OVCAR-4 = experiment: NCI60 five-dose screen, Ovarian Cancer; assay type: cell-based; conditions: Homo sapiens; OVCAR-4, Ovarian Cancer; five-dose screen; read-out: GI50
OVCAR-5 = experiment: NCI60 one-dose screen (10 μM), Ovarian Cancer; assay type: cell-based; conditions: Homo sapiens; 10 μM; OVCAR-5, Ovarian Cancer; read-out: Growth percent rate
M14 = experiment: NCI60 five-dose screen, Melanoma; assay type: cell-based; conditions: Homo sapiens; M14, Melanoma; five-dose screen; read-out: GI50
SNB-19 = experiment: NCI60 five-dose screen, CNS Cancer; assay type: cell-based; conditions: Homo sapiens; SNB-19, CNS Cancer; five-dose screen; read-out: GI50
A498 = experiment: NCI60 one-dose screen (10 μM), Renal Cancer; assay type: cell-based; conditions: Homo sapiens; 10 μM; A498, Renal Cancer; read-out: Growth percent rate
BT-549 = experiment: NCI60 one-dose screen (10 μM), Breast Cancer; assay type: cell-based; conditions: Homo sapiens; 10 μM; BT-549, Breast Cancer; read-out: Growth percent rate
PC-3 = experiment: NCI60 one-dose screen (10 μM), Prostate Cancer; assay type: cell-based; conditions: Homo sapiens; 10 μM; PC-3, Prostate Cancer; read-out: Growth percent rate
CAKI-1 = experiment: NCI60 five-dose screen, Renal Cancer; assay type: cell-based; conditions: Homo sapiens; CAKI-1, Renal Cancer; five-dose screen; read-out: GI50
[9] = test system: 60 human tumor cell lines (NCI60); experiment: NCI60 five-dose screen, whole panel and sub-panel means; assay type: cell-based; conditions: Homo sapiens, read-out: GI50 Mean
UO-31 = experiment: NCI60 one-dose screen (10 μM), Renal Cancer; assay type: cell-based; conditions: Homo sapiens; 10 μM; UO-31, Renal Cancer; read-out: Growth percent rate
RPMI-8226 [10] = experiment: NCI60 one-dose screen (10 μM), Leukemia; assay type: cell-based; conditions: Homo sapiens; 10 μM; RPMI-8226, Leukemia; read-out: Growth percent rate
DU-145 = experiment: NCI60 five-dose screen, Prostate Cancer; assay type: cell-based; conditions: Homo sapiens; DU-145, Prostate Cancer; five-dose screen; read-out: GI50
HOP-92 = experiment: NCI60 five-dose screen, Non-small Cell Lung Cancer; assay type: cell-based; conditions: Homo sapiens; HOP-92, Non-small Cell Lung Cancer; five-dose screen; read-out: GI50
MDA-MB-468 [11] = experiment: NCI60 one-dose screen (10 μM), Breast Cancer; assay type: cell-based; conditions: Homo sapiens; 10 μM; MDA-MB-468, Breast Cancer; read-out: Growth percent rate
[12] = 60 cell, mean over all 60 cell lines
[13] = mean over Non-small Cell Lung Cancer panel
[14] = mean over Prostate Cancer panel

CC[C@]12C=CCN3CC[C@@]4(c5ccc(OC)cc5N(C)[C@H]4[C@@](O)(C(=O)OC)[C@@H]1OC(=O)CCCN1CCN(Cc4ccc(F)cc4)CC1)[C@@H]32 [Compound 24]
GI50 (U251 [1]): 7.59 µM
GI50 (OVCAR-3): 10.7 µM
activity at 10 µM (T-47D): 28.8%
GI50 (SN12C): 8.32 µM
GI50 (COLO 205): 1.95 µM
GI50 (MCF7): 3.98 µM
GI50 (NCI-H322M): 8.32 µM
GI50 (HCT-15): 5.13 µM
GI50 (LOX IMVI): 5.01 µM
activity at 10 µM (NCI/ADR-RES): 42%
activity at 10 µM (MDA-MB-231/ATCC): 51.5%
activity at 10 µM (HS 578T): 56.4%
GI50 (UACC-257): 2 µM
activity at 10 µM (TK-10): 42.6%
GI50 (UACC-62 [2]): 11.5 µM
activity at 10 µM (HOP-62): 70.1%
activity at 10 µM (SK-OV-3 [3]): 70%
GI50 (OVCAR-8): 14.5 µM
activity at 10 µM (UACC-62 [4]): 34.7%
GI50 (SK-OV-3 [5]): 12 µM
GI50 (KM12): 10.5 µM
activity at 10 µM (U251 [6]): 40.3%
activity at 10 µM (SR): 4.82%
GI50 (MDA-MB231ATCC): 2.82 µM
GI50 (RPMI-8226 [7]): 4.17 µM
activity at 10 µM (NCI-H226): 50.2%
GI50 (MDA-MB-468 [8]): 1.74 µM
GI50 (ACHN): 5.89 µM
GI50 (OVCAR-4): 5.37 µM
activity at 10 µM (OVCAR-5): 81.2%
GI50 (M14): 5.5 µM
GI50 (SNB-19): 11.5 µM
activity at 10 µM (A498): 58.3%
activity at 10 µM (BT-549): 16.3%
activity at 10 µM (PC-3): 12.9%
GI50 (CAKI-1): 2.24 µM
GI50 [9, 12]: 6.84 µM
GI50 ([9]; mean over Breast Cancer panel): 4.25 µM
GI50 ([9]; mean over CNS Cancer panel): 8.08 µM
GI50 ([9]; mean over Colon Cancer panel): 6.09 µM
GI50 ([9]; mean over Leukemia panel): 3.19 µM
GI50 ([9]; mean over Melanoma panel): 5.92 µM
GI50 [9, 13]: 9.83 µM
GI50 ([9]; mean over Ovarian Cancer panel): 10.1 µM
GI50 [9, 14]: 7.32 µM
GI50 ([9]; mean over Renal Cancer panel): 5.58 µM
activity at 10 µM (UO-31): 20.7%
activity at 10 µM (RPMI-8226 [10]): 20.1%
GI50 (DU-145): 10.5 µM
GI50 (HOP-92): 1.66 µM

CCC12C=CCN3CCC4(c5cc(NC(=O)CN6CCN(C(c7ccc(F)cc7)c7ccc(F)cc7)CC6)c(OC)cc5N(C)C4C(O)(C(=O)OC)C1OC(C)=O)C32 (stereo not shown) [Compound 20]
GI50 (U251 [1]): 6.03 µM
GI50 (OVCAR-3): 4.37 µM
activity at 10 µM (MDA-MB-468 [11]): 10.9%
activity at 10 µM (T-47D): 10.2%
GI50 (SN12C): 4.9 µM
GI50 (COLO 205): 2.45 µM
GI50 (MCF7): 2.95 µM
GI50 (NCI-H322M): 12 µM
GI50 (HCT-15): 3.55 µM
GI50 (LOX IMVI): 3.24 µM
activity at 10 µM (NCI/ADR-RES): 20.9%
activity at 10 µM (MDA-MB-231/ATCC): -4.47%
activity at 10 µM (HS 578T): 15.5%
GI50 (UACC-257): 5.25 µM
activity at 10 µM (TK-10): 37.6%
GI50 (UACC-62 [2]): 8.13 µM
activity at 10 µM (HOP-62): 60.3%
activity at 10 µM (SK-OV-3 [3]): 45.4%
GI50 (OVCAR-8): 7.59 µM
activity at 10 µM (UACC-62 [4]): 28.5%
GI50 (SK-OV-3 [5]): 5.89 µM
GI50 (KM12): 3.98 µM
activity at 10 µM (U251 [6]): 31.7%
activity at 10 µM (SR): 0.34%
GI50 (MDA-MB231ATCC): 9.12 µM
GI50 (RPMI-8226 [7]): 1.91 µM
activity at 10 µM (NCI-H226): 24.1%
GI50 (MDA-MB-468 [8]): 3.02 µM
GI50 (ACHN): 4.9 µM
GI50 (OVCAR-4): 3.31 µM
activity at 10 µM (OVCAR-5): 66.9%
GI50 (M14): 4.07 µM
GI50 (SNB-19): 5.89 µM
activity at 10 µM (A498): 35.6%
activity at 10 µM (BT-549): -37.5%
GI50 (CAKI-1): 3.16 µM
GI50 [9, 12]: 6.27 µM
GI50 ([9]; mean over Breast Cancer panel): 4.52 µM
GI50 ([9]; mean over CNS Cancer panel): 4.4 µM
GI50 ([9]; mean over Colon Cancer panel): 3.4 µM
GI50 ([9]; mean over Leukemia panel): 2.38 µM
GI50 ([9]; mean over Melanoma panel): 5.6 µM
GI50 [9, 13]: 15.7 µM
GI50 ([9]; mean over Ovarian Cancer panel): 5.3 µM
GI50 [9, 14]: 5.39 µM
GI50 ([9]; mean over Renal Cancer panel): 5.23 µM
activity at 10 µM (UO-31): 27.2%
activity at 10 µM (RPMI-8226 [10]): -2.68%
GI50 (DU-145): 6.31 µM
GI50 (HOP-92): 5.01 µM
